Results from PubChem BioAssay AID330 (DTP/NCI, 2004).
Values joined by “and” are separate entries in the source; they are usually repeats but may differ in a detail not shown here. Equal entries are not always repeated. Toxic doses and inconclusive results are not listed.

Tested on: P388 leukemia ip, CD2F1 mice, survival T/C
Experiment: NCI In Vivo Anticancer Drug Screen. Data for tumor model P388 Leukemia (intraperitoneal) in CD2F1 (CDF1) mice
Details: endpoint: median survival time, higher = longer survival
How it was run: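 Mice carrying the transplanted tumor received test compound or vehicle. Survival was recorded in each group, and the value is the treated-group measurement divided by that of the vehicle-treated control group.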

[1] = dose: 50.0 mg/kg/injection, schedule: Q01DX009 (ip), vehicle: saline with Tween-80
[2] = dose: 60.0 mg/kg/injection, schedule: Q01DX005 (ip), vehicle: Klucel (hydroxypropylcellulose) (HPC)
[3] = dose: 120.0 mg/kg/injection, schedule: Q01DX005 (ip), vehicle: Klucel (hydroxypropylcellulose) (HPC)
[4] = dose: 240.0 mg/kg/injection, schedule: Q01DX005 (ip), vehicle: Klucel (hydroxypropylcellulose) (HPC)
[5] = dose: 100.0 mg/kg/injection, schedule: Q04DX003 (ip), vehicle: saline with Tween-80
[6] = dose: 200.0 mg/kg/injection, schedule: Q04DX003 (ip), vehicle: saline with Tween-80
[7] = dose: 400.0 mg/kg/injection, schedule: Q04DX003 (ip), vehicle: saline with Tween-80
[8] = dose: 50.0 mg/kg/injection, schedule: Q01DX005 (ip), vehicle: Klucel (hydroxypropylcellulose) (HPC)
[9] = dose: 100.0 mg/kg/injection, schedule: Q01DX005 (ip), vehicle: Klucel (hydroxypropylcellulose) (HPC)
[10] = dose: 200.0 mg/kg/injection, schedule: Q01DX005 (ip), vehicle: Klucel (hydroxypropylcellulose) (HPC)
[11] = dose: 100.0 mg/kg/injection, schedule: Q01DX001 (ip), vehicle: Klucel (hydroxypropylcellulose) (HPC)
[12] = dose: 200.0 mg/kg/injection, schedule: Q01DX001 (ip), vehicle: Klucel (hydroxypropylcellulose) (HPC)
[13] = dose: 50.0 mg/kg/injection, schedule: Q01DX009 (ip), vehicle: Klucel (hydroxypropylcellulose) (HPC)
[14] = dose: 100.0 mg/kg/injection, schedule: Q01DX009 (ip), vehicle: Klucel (hydroxypropylcellulose) (HPC)
[15] = dose: 200.0 mg/kg/injection, schedule: Q01DX009 (ip), vehicle: Klucel (hydroxypropylcellulose) (HPC)
[16] = dose: 25.0 mg/kg/injection, schedule: Q01DX005 (ip), vehicle: Klucel (hydroxypropylcellulose) (HPC)
[17] = dose: 50.0 mg/kg/injection, schedule: Q01DX009 (ip), vehicle: saline
[18] = dose: 100.0 mg/kg/injection, schedule: Q01DX009 (ip), vehicle: saline

Compound: O=C1N(Cl)C(=O)C(c2ccc(Cl)cc2)(c2ccc(Cl)cc2)N1Cl
- T/C (dose: 12.5 mg/kg/injection, schedule: Q01DX009 (ip), vehicle: saline with Tween-80): 118 % of control
- T/C [1]: 150 % of control

Compound: COC1(OC)C(C#N)=C(c2ccccc2)C1(OC)OC
- T/C [2]: 115 % of control
- T/C [3]: 102 % of control
- T/C [4]: 101 % of control

Compound: Cc1cnc(NCCCCCCNc2ncc(C)c(-c3ccccc3O)n2)nc1-c1ccccc1O
- T/C [5]: 91 % of control
- T/C [6]: 97 % of control
- T/C [7]: 91 % of control

Compound: CC1(C)CC(C)(O)N(CCc2ccccc2)C(=S)N1 (stereo unspecified)
- T/C [8]: 106 % of control
- T/C [9]: 98 % of control
- T/C [10]: 98 % of control

Compound: CCOC(=O)NC(N)=O
- T/C [1]: 91 % of control
- T/C (dose: 100.0 mg/kg/injection, schedule: Q01DX009 (ip), vehicle: saline with Tween-80): 89 % of control
- T/C (dose: 200.0 mg/kg/injection, schedule: Q01DX009 (ip), vehicle: saline with Tween-80): 89 % of control
- T/C (dose: 400.0 mg/kg/injection, schedule: Q01DX009 (ip), vehicle: saline with Tween-80): 97 % of control

Compound: OCc1c(-c2ccccc2)nc2n1CCS2
- T/C [11]: 102 % of control
- T/C [12]: 102 % of control
- T/C (dose: 400.0 mg/kg/injection, schedule: Q01DX001 (ip), vehicle: Klucel (hydroxypropylcellulose) (HPC)): 98 % of control

Compound: Cc1c(NC(=S)Nc2c(C(C)C)cccc2C(C)C)c(=O)n(-c2ccccc2)n1C
- T/C [13]: 113 % of control
- T/C [14]: 106 % of control
- T/C [15]: 106 % of control

Compound: Cc1ccc(S(=O)(=O)N/N=C/c2ccc(O)c(Cl)c2)cc1
- T/C (dose: 12.5 mg/kg/injection, schedule: Q01DX005 (ip), vehicle: distilled water + Tween-80): 102 % of control
- T/C (dose: 25.0 mg/kg/injection, schedule: Q01DX005 (ip), vehicle: distilled water + Tween-80): 102 % of control
- T/C (dose: 50.0 mg/kg/injection, schedule: Q01DX005 (ip), vehicle: distilled water + Tween-80): 98 % of control
- T/C (dose: 100.0 mg/kg/injection, schedule: Q01DX005 (ip), vehicle: distilled water + Tween-80): 100 % of control
- T/C (dose: 200.0 mg/kg/injection, schedule: Q01DX005 (ip), vehicle: distilled water + Tween-80): 99 % of control

Compound: Cc1ccc(OP(=O)(Oc2ccc(C)cc2)Oc2ccc(C)cc2)cc1.Cc1ccc(OP(=O)(Oc2ccc(C)cc2)Oc2ccc(C)cc2)cc1.Cc1ccc(OP(=O)(Oc2ccc(C)cc2)Oc2ccc(C)cc2)cc1.Cc1ccc(OP(=O)(Oc2ccc(C)cc2)Oc2ccc(C)cc2)cc1.[O-][Cl+3]([O-])([O-])O.[Zn+2]
- T/C (dose: 100.0 mg/kg/injection, schedule: Q04DX003 (ip), vehicle: Klucel (hydroxypropylcellulose) (HPC)): 98 % of control
- T/C (dose: 200.0 mg/kg/injection, schedule: Q04DX003 (ip), vehicle: Klucel (hydroxypropylcellulose) (HPC)): 102 % of control

Compound: CC(C)Nc1nc(Cl)nc(Cl)n1
- T/C [8]: 98 % of control
- T/C [9]: 93 % of control

Compound: CC1=C(C)C(=O)O[C@@H]([C@](C)(O)[C@]2(O)CC[C@@]3(O)[C@@H]4C[C@H]5O[C@]56[C@@H](O)C=CC(=O)[C@]6(C)[C@H]4CC[C@]23C)C1
- T/C (dose: 1.0 mg/kg/injection, schedule: Q01DX005 (ip), vehicle: distilled water + Tween-80): 108 % of control
- T/C (dose: 2.0 mg/kg/injection, schedule: Q01DX005 (ip), vehicle: distilled water + Tween-80): 122 % of control
- T/C (dose: 4.0 mg/kg/injection, schedule: Q01DX005 (ip), vehicle: distilled water + Tween-80): 111 % of control and 113 % of control
- T/C (dose: 4.0 mg/kg/injection, schedule: Q01DX005 (ip), vehicle: saline): 122 % of control
- T/C (dose: 8.0 mg/kg/injection, schedule: Q01DX005 (ip), vehicle: distilled water + Tween-80): 108 % of control and 113 % of control
- T/C (dose: 16.0 mg/kg/injection, schedule: Q01DX005 (ip), vehicle: distilled water + Tween-80): 116 % of control
- T/C (dose: 16.0 mg/kg/injection, schedule: Q01DX005 (ip), vehicle: saline): 122 % of control
- T/C (dose: 16.0 mg/kg/injection, schedule: Q01DX009 (ip), vehicle: saline): 93 % of control
- T/C (dose: 32.0 mg/kg/injection, schedule: Q01DX009 (ip), vehicle: saline): 114 % of control

Compound: Cc1cccc(C)c1-n1c(C)nc2[nH]cc(C)c2c1=N
- T/C (dose: 12.5 mg/kg/injection, schedule: Q01DX005 (ip), vehicle: Klucel (hydroxypropylcellulose) (HPC)): 99 % of control
- T/C [16]: 97 % of control
- T/C [8]: 100 % of control and 97 % of control

Compound: CSc1noc(N)n1
- T/C (dose: 12.5 mg/kg/injection, schedule: Q01DX005 (ip), vehicle: saline): 94 % of control
- T/C (dose: 25.0 mg/kg/injection, schedule: Q01DX005 (ip), vehicle: saline): 91 % of control
- T/C (dose: 50.0 mg/kg/injection, schedule: Q01DX005 (ip), vehicle: saline): 103 % of control and 94 % of control

Compound: CNc1cccnc1C1OCCO1
- T/C [8]: 96 % of control
- T/C [9]: 102 % of control
- T/C [10]: 100 % of control

Compound: CS(=O)(=O)Oc1ccc[nH]c1=O
- T/C (dose: 6.25 mg/kg/injection, schedule: Q01DX009 (ip), vehicle: saline): 110 % of control
- T/C (dose: 12.5 mg/kg/injection, schedule: Q01DX009 (ip), vehicle: Klucel (hydroxypropylcellulose) (HPC)): 93 % of control
- T/C (dose: 12.5 mg/kg/injection, schedule: Q01DX009 (ip), vehicle: saline): 121 % of control
- T/C (dose: 25.0 mg/kg/injection, schedule: Q01DX009 (ip), vehicle: Klucel (hydroxypropylcellulose) (HPC)): 103 % of control
- T/C (dose: 25.0 mg/kg/injection, schedule: Q01DX009 (ip), vehicle: saline): 115 % of control
- T/C [13]: 104 % of control
- T/C [17]: 118 % of control
- T/C [14]: 97 % of control
- T/C [18]: 109 % of control
- T/C [15]: 98 % of control
- T/C (dose: 400.0 mg/kg/injection, schedule: Q01DX009 (ip), vehicle: Klucel (hydroxypropylcellulose) (HPC)): 97 % of control

Compound: OC1(C(O)(c2ccc(-c3ccccc3)cc2)c2ccc(-c3ccccc3)cc2)CC=CCC1 (stereo unspecified)
- T/C (dose: 60.0 mg/kg/injection, schedule: Q01DX005 (ip), vehicle: saline with Tween-80): 105 % of control
- T/C (dose: 120.0 mg/kg/injection, schedule: Q01DX005 (ip), vehicle: saline with Tween-80): 92 % of control
- T/C (dose: 240.0 mg/kg/injection, schedule: Q01DX005 (ip), vehicle: saline with Tween-80): 90 % of control

Compound: COc1cc2c(c(OC)c1OC)-c1cc3c(cc1CC(CO)C(CO)C2)OCO3 (stereo unspecified)
- T/C (dose: 0.5 mg/kg/injection, schedule: Q04DX002 (ip), vehicle: saline with Tween-80): 101 % of control
- T/C (dose: 1.0 mg/kg/injection, schedule: Q04DX002 (ip), vehicle: saline with Tween-80): 106 % of control
- T/C (dose: 2.0 mg/kg/injection, schedule: Q04DX002 (ip), vehicle: saline with Tween-80): 103 % of control

Compound: C=CC(=O)NC(C)C(=O)O (stereo unspecified)
- T/C [17]: 100 % of control
- T/C [18]: 99 % of control
- T/C (dose: 200.0 mg/kg/injection, schedule: Q01DX009 (ip), vehicle: saline): 107 % of control

Compound: Cc1nnc2cccc(Cl)n12
- T/C (dose: 50.0 mg/kg/injection, schedule: Q01DX001 (ip), vehicle: Klucel (hydroxypropylcellulose) (HPC)): 106 % of control
- T/C [11]: 106 % of control
- T/C [12]: 99 % of control

Compound: COc1ccc(/C=N/Nc2ccc([N+](=O)[O-])cc2[N+](=O)[O-])cc1
- T/C (dose: 50.0 mg/kg/injection, schedule: Q04DX003 (ip), vehicle: saline with Tween-80): 93 % of control
- T/C [5]: 94 % of control
- T/C [6]: 88 % of control
- T/C [7]: 91 % of control

Compound: CN(C)c1ccc2c(Cl)ccnc2c1
- T/C (dose: 12.5 mg/kg/injection, schedule: Q01DX005 (ip), vehicle: saline with Tween-80): 100 % of control
- T/C (dose: 25.0 mg/kg/injection, schedule: Q01DX005 (ip), vehicle: saline with Tween-80): 103 % of control
- T/C (dose: 50.0 mg/kg/injection, schedule: Q01DX005 (ip), vehicle: saline with Tween-80): 103 % of control and 86 % of control

Compound: CC(C)=CCc1c(C)cc2cc3c(c(O)c2c1O)C(O)=CC(=O)C3(CC=C(C)C)C/C=C(\C)CO (stereo unspecified)
- T/C [16]: 103 % of control
- T/C [8]: 93 % of control
- T/C [9]: 97 % of control

Compound: O=C(Nc1ccc(Cl)cc1)OC1CCS(=O)(=O)C1 (stereo unspecified)
- T/C [14]: 100 % of control
- T/C [15]: 89 % of control

Compound: COC(=O)C1=NC(=S)N=C(C(=O)OC)C12Cc1ccccc1C2=O
- T/C [2]: 92 % of control
- T/C [3]: 93 % of control
- T/C [4]: 102 % of control
